Bounds are passed on as bounds.

This assay addresses T1, human PAH with the R408W mutation (Homo sapiens, UniProt P00439, R408W).
T1 construct: expressed in transfected cells
T1 sequence (P00439 1-452 R408W): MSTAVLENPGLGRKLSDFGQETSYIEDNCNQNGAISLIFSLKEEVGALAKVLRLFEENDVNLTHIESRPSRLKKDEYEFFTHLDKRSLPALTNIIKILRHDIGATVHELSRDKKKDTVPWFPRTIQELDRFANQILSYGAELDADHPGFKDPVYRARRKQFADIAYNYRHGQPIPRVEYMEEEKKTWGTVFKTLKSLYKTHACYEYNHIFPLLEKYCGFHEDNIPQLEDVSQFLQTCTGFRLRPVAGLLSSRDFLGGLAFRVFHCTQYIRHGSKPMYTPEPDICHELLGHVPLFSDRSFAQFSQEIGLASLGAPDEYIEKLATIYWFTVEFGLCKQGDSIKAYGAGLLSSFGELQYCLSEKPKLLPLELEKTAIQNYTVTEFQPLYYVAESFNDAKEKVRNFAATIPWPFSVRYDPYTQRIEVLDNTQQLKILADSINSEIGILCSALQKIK
Briefly: Cell Based Phenylalanine Flux Assay. Conditions: A375 R408W cells, 24 hrs with compound, then 20 μM sepiapterin and 800 μM 13C9,15N-Phenylalanine for 4 hours; 13C-Tyrosine by LC-MS; average where tested multiple times; read-out: AC50.
As to `CC(C)(O)c1nc(C2CC2)c(C(=O)N2CCc3[nH]cnc3C2c2ccc3ccccc3n2)o1` (stereo not shown), the AC50 was 1 to 5 µM.
Consider `O=C(C1CN(CC(F)(F)F)C1)N1CCc2[nH]cnc2C1c1ccc2ccccc2n1` (stereo not shown) [listing 1 of 2 here], for which the AC50 lay within 1 to 5 µM.
As to `O=C(c1cnn(-c2ccccn2)c1)N1CCc2[nH]cnc2C1c1ccc2ccccc2n1` (stereo not shown), the AC50 lay in the range of 1 to 5 µM.
The same measure for `O=C(C1CN(c2ccccn2)C1)N1CCc2[nH]cnc2C1c1ccc2ccccc2n1` (stereo not shown) [listing 1 of 2 here]: 1 to 5 µM.
Turning to `Cn1nc(COC(F)(F)F)cc1C(=O)N1CCc2[nH]cnc2C1c1ccc2ccccc2n1` (stereo not shown), the concentration at half-maximal activity (AC50) was 1 to 5 µM.
The same measure for `Cn1cc(-c2ncc(C(=O)N3CCc4[nH]cnc4C3c3ccc4ccccc4n3)o2)cn1` (stereo not shown): 1 to 5 µM.
In the case of `Cc1nc(CCN2CC(F)C2)oc1C(=O)N1CCc2[nH]cnc2C1c1ccc2ccccc2n1` (stereo not shown) [listing 1 of 2 here], the AC50 was 1 to 5 µM.
As for `COC(C)(C)c1nc(C)c(C(=O)N2CCc3[nH]cnc3C2c2ccc3ccccc3n2)o1` (stereo not shown), the AC50 is 1 to 5 µM.
As to `Cc1nc(N2CCC(F)CC2)oc1C(=O)N1CCc2[nH]cnc2C1c1ccc2ccccc2n1` (stereo not shown) [listing 1 of 2 here], the AC50 lay in the range of 1 to 5 µM.
As to `O=C(c1oc(C2CC2)nc1C(F)F)N1CCc2[nH]cnc2C1c1ccc2ccccc2n1` (stereo not shown), the AC50 lay within 1 to 5 µM.
As for `O=C(c1oc(-c2ccccn2)nc1C1CC1)N1CCCc2[nH]cnc2C1c1ccc2ccccc2n1` (stereo not shown) [listing 1 of 2 here], the figure is 1 to 5 µM.
The same measure for `Cc1nc(N2CCN(C)CC2)oc1C(=O)N1CCc2[nH]cnc2C1c1ccc2ccccc2n1` (stereo not shown): 1 to 5 µM; for `Cc1nc(N2CCOCC2)oc1C(=O)N1CCc2[nH]cnc2C1c1ccc2ccccc2n1` (stereo not shown) [listing 1 of 2 here]: 1 to 5 µM; for `O=C(c1nnc(-c2ccn(CC(F)F)n2)o1)N1CCc2[nH]cnc2C1c1ccc2ccccc2n1` (stereo not shown) [listing 1 of 2 here]: 1 to 5 µM.
As for `O=C(c1nnc(-c2cn[nH]c2)o1)N1CCc2[nH]cnc2C1c1ccc2ccccc2n1` (stereo not shown) [listing 1 of 2 here], the figure is 1 to 5 µM; as for `O=C(c1nnc(CCN2CCOCC2)o1)N1CCc2[nH]cnc2C1c1ccc2ccccc2n1` (stereo not shown) [listing 1 of 2 here], 1 to 5 µM; as for `O=C(c1nnc(N2CC(F)C2)o1)N1CCc2[nH]cnc2C1c1ccc2ccccc2n1` (stereo not shown) [listing 1 of 2 here], 1 to 5 µM.
Consider `O=C(c1nnc(C2CC(F)(F)C2)o1)N1CCc2[nH]cnc2C1c1ccc2ccccc2n1` (stereo not shown) [listing 1 of 2 here], for which the AC50 was 1 to 5 µM.
In the case of `O=C(c1nnc(-c2ccc(C(F)(F)F)cc2)o1)N1CCc2[nH]cnc2C1c1ccc2ccccc2n1` (stereo not shown) [listing 1 of 2 here], the AC50 was in the range of 1 to 5 µM.
The same measure for `Cc1cc(F)ccc1-c1nnc(C(=O)N2CCc3[nH]cnc3C2c2ccc3ccccc3n2)o1` (stereo not shown): 1 to 5 µM; for `O=C(c1nnc(N2CCC(F)CC2)o1)N1CCc2[nH]cnc2C1c1ccc2ccccc2n1` (stereo not shown) [listing 1 of 2 here]: 1 to 5 µM; for `CN1CCN(c2nnc(C(=O)N3CCc4[nH]cnc4C3c3ccc4ccccc4n3)o2)CC1` (stereo not shown) [listing 1 of 2 here]: 1 to 5 µM.
As for `O=C(c1nnc(-c2ccc(C(F)(F)F)cn2)o1)N1CCc2[nH]cnc2C1c1ccc2ccccc2n1` (stereo not shown) [listing 1 of 2 here], the figure is 1 to 5 µM; as for `O=C(c1nnc(COC(F)(F)F)o1)N1CCc2[nH]cnc2C1c1ccc2ccccc2n1` (stereo not shown) [listing 1 of 2 here], 1 to 5 µM.
For the molecule `COCc1nnc(C(=O)N2CCc3[nH]cnc3C2c2ccc3ccccc3n2)o1` (stereo not shown), the AC50 lay in the range of 1 to 5 µM.
As for `O=C(c1nnc(N2CCOCC2)o1)N1CCc2[nH]cnc2C1c1ccc2ccccc2n1` (stereo not shown) [listing 1 of 2 here], the figure is 1 to 5 µM; as for `O=C(c1nnc(-c2ccccn2)o1)N1CCCc2[nH]cnc2C1c1ccc2ccccc2n1` (stereo not shown), greater than 5 µM; as for `O=C(c1cnn(-c2ccccn2)c1Cl)N1CCc2[nH]cnc2C1c1ccc2ccccc2n1` (stereo not shown) [listing 1 of 2 here], 1 to 5 µM.
Regarding `COCCc1ccc2c(C(=O)N3CCc4[nH]cnc4C3c3ccc4ccccc4n3)cnn2c1` (stereo not shown) [listing 1 of 2 here], the AC50 is 1 to 5 µM.
With `COCc1ccc2c(C(=O)N3CCc4[nH]cnc4C3c3ccc4ccccc4n3)cnn2c1` (stereo not shown), the AC50 is greater than 5 µM.
The same measure for `O=C(C1CC1(F)F)N1CCc2[nH]cnc2C1c1ccc2ccccc2n1` (stereo not shown): 1 to 5 µM; for `O=C(C1CC1)N1CCc2[nH]cnc2C1c1ccc2ccccc2n1` (stereo not shown): 1 to 5 µM.
As for `O=C(Cc1cnn2ccccc12)N1CCc2[nH]cnc2C1c1ccc2ccccc2n1` (stereo not shown), the figure is 1 to 5 µM; as for `Cc1nc(N)oc1C(=O)N1CCc2[nH]cnc2C1c1ccc2ccccc2n1` (stereo not shown) [listing 1 of 2 here], 1 to 5 µM.
The same measure for `O=C(c1nnc(CCNC2CC2)o1)N1CCc2[nH]cnc2C1c1ccc2ccccc2n1` (stereo not shown) [listing 1 of 2 here]: 1 to 5 µM; for `COCCNc1nnc(C(=O)N2CCc3[nH]cnc3C2c2ccc3ccccc3n2)o1` (stereo not shown) [listing 1 of 2 here]: 1 to 5 µM.
Consider `Cc1nc(NC2CC2)oc1C(=O)N1CCc2[nH]cnc2C1c1ccc2ccccc2n1` (stereo not shown) [listing 1 of 2 here], for which the concentration at half-maximal activity (AC50) was in the range of 1 to 5 µM.
In the case of `O=C(c1nnc(NC2CC2)o1)N1CCc2[nH]cnc2C1c1ccc2ccccc2n1` (stereo not shown) [listing 1 of 2 here], the AC50 lay within 1 to 5 µM.
The same measure for `CN(C)c1nnc(C(=O)N2CCc3[nH]cnc3C2c2ccc3ccccc3n2)o1` (stereo not shown) [listing 1 of 2 here]: 1 to 5 µM; for `Cc1nc(N(C)C)oc1C(=O)N1CCc2[nH]cnc2C1c1ccc2ccccc2n1` (stereo not shown): 1 to 5 µM.
As for `Cc1nc(CCN(C)C)oc1C(=O)N1CCc2[nH]cnc2C1c1ccc2ccccc2n1` (stereo not shown), the AC50 lay within 1 to 5 µM.
The same measure for `CN(C)Cc1nnc(C(=O)N2CCc3[nH]cnc3C2c2ccc3ccccc3n2)o1` (stereo not shown) [listing 1 of 2 here]: 1 to 5 µM.
For `COC(=O)N1CC(C(=O)N2CCc3[nH]cnc3C2c2ccc3ccccc3n2)C1` (stereo not shown), the concentration at half-maximal activity (AC50) is greater than 5 µM.
As for `O=C(C1CN(CC(F)(F)F)C1)N1CCc2[nH]cnc2C1c1ccc2ccccc2n1` (stereo not shown) [listing 2 of 2 here], the figure is greater than 5 µM.
As for `O=C(C1CN(c2ccccn2)C1)N1CCc2[nH]cnc2C1c1ccc2ccccc2n1` (stereo not shown) [listing 2 of 2 here], the figure is greater than 5 µM; as for `Cc1nc(CCN2CC(F)C2)oc1C(=O)N1CCc2[nH]cnc2C1c1ccc2ccccc2n1` (stereo not shown) [listing 2 of 2 here], greater than 5 µM.
The same measure for `Cc1nc(N2CCC(F)CC2)oc1C(=O)N1CCc2[nH]cnc2C1c1ccc2ccccc2n1` (stereo not shown) [listing 2 of 2 here]: greater than 5 µM.
On to `COCc1ncc(C(=O)N2CCc3[nH]cnc3C2c2ccc3ccccc3n2)s1` (stereo not shown), for which the AC50 is greater than 5 µM.
As for `O=C(c1oc(-c2ccccn2)nc1C1CC1)N1CCCc2[nH]cnc2C1c1ccc2ccccc2n1` (stereo not shown) [listing 2 of 2 here], the figure is greater than 5 µM.
Take `Cc1nc(N2CCOCC2)oc1C(=O)N1CCc2[nH]cnc2C1c1ccc2ccccc2n1` (stereo not shown) [listing 2 of 2 here]: the AC50 is greater than 5 µM.
As for `O=C(c1nnc(-c2ccn(CC(F)F)n2)o1)N1CCc2[nH]cnc2C1c1ccc2ccccc2n1` (stereo not shown) [listing 2 of 2 here], the figure is greater than 5 µM; as for `O=C(c1nnc(-c2cn[nH]c2)o1)N1CCc2[nH]cnc2C1c1ccc2ccccc2n1` (stereo not shown) [listing 2 of 2 here], greater than 5 µM.
Turning to `O=C(c1nnc(CCN2CCOCC2)o1)N1CCc2[nH]cnc2C1c1ccc2ccccc2n1` (stereo not shown) [listing 2 of 2 here], the AC50 was greater than 5 µM.
For `O=C(c1nnc(N2CC(F)C2)o1)N1CCc2[nH]cnc2C1c1ccc2ccccc2n1` (stereo not shown) [listing 2 of 2 here], the concentration at half-maximal activity (AC50) was greater than 5 µM.
Turning to `O=C(c1nnc(C2CC(F)(F)C2)o1)N1CCc2[nH]cnc2C1c1ccc2ccccc2n1` (stereo not shown) [listing 2 of 2 here], the AC50 was greater than 5 µM.
The same measure for `O=C(c1nnc(-c2ccc(C(F)(F)F)cc2)o1)N1CCc2[nH]cnc2C1c1ccc2ccccc2n1` (stereo not shown) [listing 2 of 2 here]: greater than 5 µM.
As for `O=C(c1nnc(N2CCC(F)CC2)o1)N1CCc2[nH]cnc2C1c1ccc2ccccc2n1` (stereo not shown) [listing 2 of 2 here], the figure is greater than 5 µM; as for `CN1CCN(c2nnc(C(=O)N3CCc4[nH]cnc4C3c3ccc4ccccc4n3)o2)CC1` (stereo not shown) [listing 2 of 2 here], greater than 5 µM.
The same measure for `O=C(c1nnc(-c2ccc(C(F)(F)F)cn2)o1)N1CCc2[nH]cnc2C1c1ccc2ccccc2n1` (stereo not shown) [listing 2 of 2 here]: greater than 5 µM.
On to `O=C(c1nnc(COC(F)(F)F)o1)N1CCc2[nH]cnc2C1c1ccc2ccccc2n1` (stereo not shown) [listing 2 of 2 here], for which the AC50 is greater than 5 µM.
In the case of `O=C(c1nnc(N2CCOCC2)o1)N1CCc2[nH]cnc2C1c1ccc2ccccc2n1` (stereo not shown) [listing 2 of 2 here], the AC50 is greater than 5 µM.
As for `O=C(c1cnn(-c2ccccn2)c1Cl)N1CCc2[nH]cnc2C1c1ccc2ccccc2n1` (stereo not shown) [listing 2 of 2 here], the figure is greater than 5 µM; as for `COCCc1ccc2c(C(=O)N3CCc4[nH]cnc4C3c3ccc4ccccc4n3)cnn2c1` (stereo not shown) [listing 2 of 2 here], greater than 5 µM.
The same measure for `Cc1nc(N)oc1C(=O)N1CCc2[nH]cnc2C1c1ccc2ccccc2n1` (stereo not shown) [listing 2 of 2 here]: greater than 5 µM; for `O=C(c1nnc(CCNC2CC2)o1)N1CCc2[nH]cnc2C1c1ccc2ccccc2n1` (stereo not shown) [listing 2 of 2 here]: greater than 5 µM.
As for `COCCNc1nnc(C(=O)N2CCc3[nH]cnc3C2c2ccc3ccccc3n2)o1` (stereo not shown) [listing 2 of 2 here], the figure is greater than 5 µM; as for `Cc1nc(NC2CC2)oc1C(=O)N1CCc2[nH]cnc2C1c1ccc2ccccc2n1` (stereo not shown) [listing 2 of 2 here], greater than 5 µM.
For `O=C(c1nnc(NC2CC2)o1)N1CCc2[nH]cnc2C1c1ccc2ccccc2n1` (stereo not shown) [listing 2 of 2 here], the AC50 is greater than 5 µM.
The same measure for `CN(C)c1nnc(C(=O)N2CCc3[nH]cnc3C2c2ccc3ccccc3n2)o1` (stereo not shown) [listing 2 of 2 here]: greater than 5 µM; for `CN(C)Cc1nnc(C(=O)N2CCc3[nH]cnc3C2c2ccc3ccccc3n2)o1` (stereo not shown) [listing 2 of 2 here]: greater than 5 µM.
As for `Cc1ncoc1C(=O)N1CC2(CC2)c2[nH]cnc2C1c1ccc2ccccc2n1` (stereo not shown), the figure is 1 to 5 µM.
Take `CC1CN(C(=O)c2nnc(C(C)(C)O)o2)C(c2cc3ccccc3cn2)c2nc[nH]c21` (stereo not shown): the AC50 was 1 to 5 µM.
As for `CC1CN(C(=O)c2nnc(N3CCOCC3)o2)C(c2cc3ccccc3cn2)c2nc[nH]c21` (stereo not shown) [listing 1 of 2 here], the figure is 1 to 5 µM.
As for `CC1CN(C(=O)c2nnc(N(C)C)o2)C(c2cc3ccccc3cn2)c2nc[nH]c21` (stereo not shown) [listing 1 of 3 here], the figure is 1 to 5 µM; as for `CC1CN(C(=O)c2nnc(N(C)C)o2)C(c2cc3ccccc3cn2)c2nc[nH]c21` (stereo not shown) [listing 2 of 3 here], 1 to 5 µM; as for `CC1CN(C(=O)c2cnn3cc(CN(C)C)ccc23)C(c2cc3ccccc3cn2)c2nc[nH]c21` (stereo not shown) [listing 1 of 2 here], greater than 5 µM.
With `CC1CN(C(=O)c2nnc(N3CCOCC3)o2)C(c2cc3ccccc3cn2)c2nc[nH]c21` (stereo not shown) [listing 2 of 2 here], the AC50 was greater than 5 µM.
Turning to `CC1CN(C(=O)c2nnc(N(C)C)o2)C(c2cc3ccccc3cn2)c2nc[nH]c21` (stereo not shown) [listing 3 of 3 here], the AC50 was greater than 5 µM.
As for `CC1CN(C(=O)c2cnn3cc(CN(C)C)ccc23)C(c2cc3ccccc3cn2)c2nc[nH]c21` (stereo not shown) [listing 2 of 2 here], the AC50 fell in the range of 1 to 5 µM.
